According to patent EP4692072A1, “PHOTOCHROMIC COMPOUND, PROPARGYL ALCOHOL COMPOUND, CURABLE COMPOSITION, OPTICAL ARTICLE, LENS, AND SPECTACLES” (TOKUYAMA CORPORATION, priority 2023, dated 2024):

Columns and labels:
[1] = Photochromic properties of photochromic laminate (plastic lens) prepared by coating method; assay type: physicochemical; settings: 40 µm photochromic layer on thiourethane lens, 0.25 mmol compound per 100 g monomers, after color development
Text: (§1) First, the photochromic compound obtained in Example 1, a photoinitiator, and a polymerizable compound were mixed to obtain a curable composition.
(§2) Polyethylene glycol dimethacrylate (average molecular weight: 736): 42 parts by mass • Polyethylene glycol dimethacrylate (average molecular weight: 536): 12 parts by mass • Trimethylolpropane trimethacrylate: 38 parts by mass γ-methacryloyloxypropyl trimethoxysilane: 2 parts by mass Glycidyl methacrylate: 1 part by mass
(§3) Note that the photochromic compound was added to the curable composition so that the amount of the photochromic compound was 0.25 mmol based on 100 g of the total amount of the radical-polymerizable monomers.
(§4) Phenylbis(2,4,6-trimethylbenzoyl)phosphine oxide (photoinitiator: Omnirad 819): 0.3 parts by mass Ethylene bis(oxyethylene) bis[3-(5-tert-butyl-4-hydroxy-m-tolyl)propionate] (stabilizer, Irganox 245): 1 part by mass Bis(1,2,2,6,6-pentamethyl-4-piperidyl) sebacate: 3 parts by mass Leveling agent (L7001) manufactured by Dow Corning Toray Co.,Ltd.: 0.1 part by mass
(§5) First, a thiourethane-based plastic lens having a central thickness of 2 mm and a refractive index of 1.60 was prepared as the optical substrate. Note that this thiourethane-based plastic lens was pre-treated by alkaline etching with a 10% sodium hydroxide aqueous solution at 50°C for 5 minutes, followed by sufficient washing with distilled water.
(§6) A surface of the above-described plastic lens was coated with a moisture-curable primer (product name: TR-SC-P, manufactured by Tokuyama Corporation) at a rotation frequency of 70 rpm for 15 seconds, followed by 1000 rpm for 10 seconds, using a spin coater (1H-DX2, manufactured by MIKASA CO., LTD), Subsequently, about 2 g of the photochromic curable composition obtained above was spin-coated at a rotation frequency of 60 rpm for 40 seconds, followed by 600 rpm for 10 to 20 seconds, to form a photochromic coating layer with a film thickness of 40 µm.
(§7) The lens with the surface coated with the photochromic curable composition (photochromic coating layer) was irradiated with light using a metal halide lamp with an output power of 200 mW/cm^2 in a nitrogen gas atmosphere for 90 seconds to cure the coating film. Subsequently, the lens was further heated at 110°C for 1 hour to prepare a photochromic laminate having a photochromic layer.
In the same manner as in Example 26, photochromic laminates were prepared using the photochromic compounds obtained in Examples 2 to 25.
(§8) • [1] Maximum Absorption Wavelength (λmax): The maximum absorption wavelength after color development, measured using a spectrophotometer (instantaneous multichannel photodetector MCPD3000) manufactured by Otsuka Electronics Co., Ltd. was used as an indicator for the color tone during the color development. • [2] 23°C Color Optical Density (A23): A difference between an absorbancy measured after light irradiation at 23°C for 300 seconds {ε(300)} and an absorbancy without light irradiation ε(0) at the maximum absorption wavelength was used as an indicator for the color optical density. […] 23°C color fading half-life [τ1/2 (sec.)]: A time required for the absorbancy of the sample at the maximum absorption wavelength to decrease to 1/2 of {ε(300)-ε(0)} when the light irradiation was terminated after the light irradiation at 23°C for 300 seconds, was used as an indicator for the color fading speed. The shorter this time, the higher the color fading speed. • [4] Residual rate (A120/A0×100): The obtained photochromic plastic lens was subjected to accelerated deterioration using a xenon weather meter X25 manufactured by Suga Test Instruments Co., Ltd. for 120 hours. Subsequently, the color optical density was evaluated before and after the test, then a color optical density before the test (A0) and a color optical density after the test (A120) were measured, and a ratio (A120/A0) was defined as a residual rate. The residual rate was used as an indicator for a color developing durability. […]

[2] = Accelerated deterioration (xenon weather meter X25, 120 hours) of photochromic laminate prepared by coating method; assay type: physicochemical; settings: 0.25 mmol per 100 g monomers, A120/A0×100 after 120 hours xenon weather meter
Text: as §1, §2, §3, §4, §5, §6, §7
as §8, with “durability. The higher the residual rate, the higher the color developing durability.” for “durability.”

SMILES: COc1ccc(C2(c3ccc(N(C)c4ccccc4)cc3)C=Cc3c4c(c5cc6c(cc5c3O2)SC(C)(C)S6)-c2ccc(-c3ccc(F)c(F)c3F)cc2C42CCCCCCCCCCC2)cc1 (centres unmarked) [Example 52]
- Maximum absorption wavelength [1]: 488 nm
- Maximum absorption wavelength ([1]; listed as Formula (93)): 604 nm
- Residual rate [2]: 58%
- Residual rate ([2]; listed as Formula (93)): 56%

SMILES: COc1ccc(C2(c3ccc(N(C)c4ccccc4)cc3)C=Cc3c4c(c5cc(-c6c(OC)cc(OC)cc6OC)c(OC)cc5c3O2)-c2ccc(C)cc2C4(CCCSC)CCCSC)cc1 (centres unmarked) [Example 12]
- Maximum absorption wavelength [1]: 478 nm
- Maximum absorption wavelength ([1]; listed as Formula (66)): 614 nm
- Residual rate [2]: 65%

SMILES: CCCCCCC1(CCCCCC)c2ccccc2-c2c1c1c(c3cc(OC)ccc23)OC(c2ccc(F)cc2)(c2ccc(N(CC)c3ccccc3)cc2)C=C1 (centres unmarked) [Example 4]
- Maximum absorption wavelength [1]: 489 nm
- Maximum absorption wavelength ([1]; listed as Formula (48)): 601 nm
- Residual rate [2]: 57%

SMILES: CCCCC1(CCCC)c2cc([Si](C)(c3ccccc3)c3ccccc3)ccc2-c2c1c1c(c3cc(OC)c(C)cc23)OC(c2ccc(C)cc2)(c2ccc(N(C)c3ccccc3)cc2)C=C1 (centres unmarked) [Example 15]
- Maximum absorption wavelength [1]: 487 nm
- Maximum absorption wavelength ([1]; listed as Formula (75)): 602 nm
- Residual rate [2]: 58%

SMILES: CCCC1(CCC)c2ccccc2-c2c1c1c(c3cc(OC)c(N(c4ccccc4)c4ccccc4)cc23)OC(c2ccc(C)cc2)(c2ccc(N(C)c3ccccc3)cc2)C=C1 (centres unmarked) [Example 22]
- Maximum absorption wavelength [1]: 530 nm
- Residual rate [2]: 68%

SMILES: COCCCCC1(CCCCOC)c2cc(-c3ccccc3)ccc2-c2c1c1c(c3cc(OC)c(N4CCS(=O)(=O)CC4)cc23)OC(c2ccc(OCCOCCOC)cc2)(c2ccc(N(C)c3ccccc3)cc2)C=C1 (centres unmarked) [Example 58]
- Maximum absorption wavelength [1]: 498 nm
- Maximum absorption wavelength ([1]; listed as Formula (114)): 617 nm
- Residual rate [2]: 60%

SMILES: COc1ccc(C2(c3ccc(N(c4ccccc4)C4CCCCC4)cc3)C=Cc3c4c(c5cc(OC)c(OC)cc5c3O2)-c2ccccc2C4(CCCCF)CCCCF)cc1 (centres unmarked) [Example 6]
- Maximum absorption wavelength [1]: 481 nm
- Maximum absorption wavelength ([1]; listed as Formula (53)): 593 nm
- Residual rate [2]: 70%
- Residual rate ([2]; listed as Formula (53)): 63%

SMILES: COCCCC1(CCCOC)c2cc(-c3ccc(C(C)(C)C)cc3)ccc2-c2c1c1c(c3cc(OC)c(OC)cc23)OC(c2ccc(N(CCOC)c3ccccc3)cc2)(c2ccc3c(c2)OCCO3)C=C1 (centres unmarked) [Example 20]
- Maximum absorption wavelength [1]: 486 nm
- Maximum absorption wavelength ([1]; listed as Formula (81)): 608 nm
- Residual rate [2]: 67%
- Residual rate ([2]; listed as Formula (81)): 63%

SMILES: CCCc1ccc(C2(c3ccc(N(C)c4ccccc4)cc3)C=Cc3c4c(c5cc(-c6ccc(C)cc6)c(C)cc5c3O2)-c2ccccc2C4(CCOC)CCOC)cc1 (centres unmarked) [Example 18]
- Maximum absorption wavelength [1]: 587 nm
- Residual rate [2]: 60%

SMILES: CCCc1ccc(C2(c3ccc(N(C)c4ccccc4)cc3)C=Cc3c4c(c5cc(OC)ccc5c3O2)-c2ccccc2C42CCCCCCC2)cc1 (centres unmarked) [Example 61]
- Maximum absorption wavelength [1]: 487 nm
- Maximum absorption wavelength ([1]; listed as Formula (122)): 564 nm
- Residual rate [2]: 59%
- Residual rate ([2]; listed as Formula (122)): 57%

SMILES: CCCOc1ccc(C2(c3ccc(N(CC(F)(F)F)c4ccccc4)cc3)C=Cc3c4c(c5cc(-c6ccc(OC)cc6)c(C)cc5c3O2)-c2ccc(C)cc2C4(CC)CC)cc1 (centres unmarked) [Example 17]
- Maximum absorption wavelength [1]: 484 nm
- Maximum absorption wavelength ([1]; listed as Formula (78)): 592 nm
- Residual rate [2]: 56%

SMILES: COc1cc2c3c(c4c(c2cc1OC)-c1ccc(-c2ccc(C(F)(F)F)cc2)cc1C4(CCCC(F)(F)F)CCCC(F)(F)F)C=CC(c1ccc(Oc2ccccc2)cc1)(c1ccc(N(C)c2ccccc2)cc1)O3 (centres unmarked) [Example 13]
- Maximum absorption wavelength [1]: 489 nm
- Maximum absorption wavelength ([1]; listed as Formula (69)): 605 nm
- Residual rate [2]: 65%
- Residual rate ([2]; listed as Formula (69)): 60%

SMILES: COc1ccc(C2(c3ccc(N(C)c4ccccc4)cc3)C=Cc3c4c(c5cc(-c6ccc(N7CCSCC7)cc6)c(OC)cc5c3O2)-c2ccc(OC)cc2C4(CCC(F)(F)F)CCC(F)(F)F)cc1 (centres unmarked) [Example 54]
- Maximum absorption wavelength [1]: 501 nm
- Maximum absorption wavelength ([1]; listed as Formula (96)): 628 nm
- Residual rate [2]: 67%

SMILES: CCCOc1ccc(C2(c3ccc(N(CC(F)(F)F)c4ccccc4)cc3)C=Cc3c4c(c5ccccc5c3O2)-c2ccccc2C42CCCCCCC2)cc1 (centres unmarked) [Example 9]
- Maximum absorption wavelength [1]: 578 nm
- Residual rate [2]: 62%
